# Source: patent publication US10322111B2, “Chemokine receptor binding heterocyclic compounds with enhanced efficacy” (Genzyme Corporation, priority 2001, dated 2019)
# Read-outs that look alike come from different tables or passages of the source.
# Tested on: CFU-GM, BFU-E and CFU-GEMM progenitor cells
# Settings: 80 μg/kg s.c.
structure (smiles),measurement,setting,value
"c1cc(CN2CCCNCCNCCCNCC2)ccc1CN1CCCNCCNCCCNCC1 [AMD3100, 1,1′-[1,4-phenylene-bis(methylene)]-bis-1,4,8,11-tetraazacyclotetradecane]","Cycling Status of Progenitors, BFU-E","P1, T = 1 h after injection",0%
same,"Cycling Status of Progenitors, CFU-GEMM","P1, T = 1 h after injection",0%
same,"Cycling Status of Progenitors, CFU-GM","P1, T = 1 h after injection",1%
same,"Cycling Status of Progenitors, CFU-GM, AGAR Culture","P1, T = 1 h after injection",0%
same,"Cycling Status of Progenitors, BFU-E","P1, T = 3 h after injection",13%
same,"Cycling Status of Progenitors, CFU-GEMM","P1, T = 3 h after injection",7%
same,"Cycling Status of Progenitors, CFU-GM","P1, T = 3 h after injection",1%
same,"Cycling Status of Progenitors, CFU-GM, AGAR Culture","P1, T = 3 h after injection",0%
same,"Cycling Status of Progenitors, BFU-E","P1, T = 6 h after injection",0%
same,"Cycling Status of Progenitors, CFU-GEMM","P1, T = 6 h after injection",0%
same,"Cycling Status of Progenitors, CFU-GM","P1, T = 6 h after injection",0%
same,"Cycling Status of Progenitors, CFU-GM, AGAR Culture","P1, T = 6 h after injection",0%
same,"Cycling Status of Progenitors, BFU-E","P1, T = 9 h after injection",11%
same,"Cycling Status of Progenitors, CFU-GEMM","P1, T = 9 h after injection",0%
same,"Cycling Status of Progenitors, CFU-GM","P1, T = 9 h after injection",2%
same,"Cycling Status of Progenitors, BFU-E","P1, T = 24 h after injection",0%
same,"Cycling Status of Progenitors, CFU-GEMM","P1, T = 24 h after injection",0%
same,"Cycling Status of Progenitors, CFU-GM","P1, T = 24 h after injection",0%
same,"Cycling Status of Progenitors, BFU-E","P2, T = 1 h after injection",3%
same,"Cycling Status of Progenitors, CFU-GEMM","P2, T = 1 h after injection",6%
same,"Cycling Status of Progenitors, CFU-GM","P2, T = 1 h after injection",0%
same,"Cycling Status of Progenitors, CFU-GM, AGAR Culture","P2, T = 1 h after injection",0%
same,"Cycling Status of Progenitors, BFU-E","P2, T = 3 h after injection",0%
same,"Cycling Status of Progenitors, CFU-GEMM","P2, T = 3 h after injection",0%
same,"Cycling Status of Progenitors, CFU-GM","P2, T = 3 h after injection",2%
same,"Cycling Status of Progenitors, CFU-GM, AGAR Culture","P2, T = 3 h after injection",1%
same,"Cycling Status of Progenitors, BFU-E","P2, T = 6 h after injection",0%
same,"Cycling Status of Progenitors, CFU-GEMM","P2, T = 6 h after injection",0%
same,"Cycling Status of Progenitors, CFU-GM","P2, T = 6 h after injection",0%
same,"Cycling Status of Progenitors, CFU-GM, AGAR Culture","P2, T = 6 h after injection",3%
same,"Cycling Status of Progenitors, BFU-E","P2, T = 9 h after injection",0%
same,"Cycling Status of Progenitors, CFU-GEMM","P2, T = 9 h after injection",4%
same,"Cycling Status of Progenitors, CFU-GM","P2, T = 9 h after injection",0%
same,"Cycling Status of Progenitors, CFU-GM, AGAR Culture","P2, T = 9 h after injection",0%
same,"Cycling Status of Progenitors, BFU-E","P2, T = 24 h after injection",2%
same,"Cycling Status of Progenitors, CFU-GEMM","P2, T = 24 h after injection",0%
same,"Cycling Status of Progenitors, CFU-GM","P2, T = 24 h after injection",3%
same,"Cycling Status of Progenitors, CFU-GM, AGAR Culture","P2, T = 24 h after injection",0%
same,"Cycling Status of Progenitors, BFU-E","P3, T = 1 h after injection",0%
same,"Cycling Status of Progenitors, CFU-GEMM","P3, T = 1 h after injection",0%
same,"Cycling Status of Progenitors, CFU-GM","P3, T = 1 h after injection",0%
same,"Cycling Status of Progenitors, CFU-GM, AGAR Culture","P3, T = 1 h after injection",0%
same,"Cycling Status of Progenitors, BFU-E","P3, T = 3 h after injection",0%
same,"Cycling Status of Progenitors, CFU-GEMM","P3, T = 3 h after injection",0%
same,"Cycling Status of Progenitors, CFU-GM","P3, T = 3 h after injection",1%
same,"Cycling Status of Progenitors, CFU-GM, AGAR Culture","P3, T = 3 h after injection",0%
same,"Cycling Status of Progenitors, BFU-E","P3, T = 6 h after injection",0%
same,"Cycling Status of Progenitors, CFU-GEMM","P3, T = 6 h after injection",0%
same,"Cycling Status of Progenitors, CFU-GM","P3, T = 6 h after injection",0%
same,"Cycling Status of Progenitors, CFU-GM, AGAR Culture","P3, T = 6 h after injection",3%
same,"Cycling Status of Progenitors, BFU-E","P3, T = 9 h after injection",0%
same,"Cycling Status of Progenitors, CFU-GEMM","P3, T = 9 h after injection",0%
same,"Cycling Status of Progenitors, CFU-GM","P3, T = 9 h after injection",0%
same,"Cycling Status of Progenitors, CFU-GM, AGAR Culture","P3, T = 9 h after injection",0%
same,"Cycling Status of Progenitors, BFU-E","P3, T = 24 h after injection",0%
same,"Cycling Status of Progenitors, CFU-GEMM","P3, T = 24 h after injection",0%
same,"Cycling Status of Progenitors, CFU-GM","P3, T = 24 h after injection",0%
same,"Cycling Status of Progenitors, CFU-GM, AGAR Culture","P3, T = 24 h after injection",0%
same,"Cycling Status of Progenitors, BFU-E","P4, T = 1 h after injection",0%
same,"Cycling Status of Progenitors, CFU-GEMM","P4, T = 1 h after injection",0%
same,"Cycling Status of Progenitors, CFU-GM","P4, T = 1 h after injection",0%
same,"Cycling Status of Progenitors, CFU-GM, AGAR Culture","P4, T = 1 h after injection",0%
same,"Cycling Status of Progenitors, BFU-E","P4, T = 3 h after injection",9%
same,"Cycling Status of Progenitors, CFU-GEMM","P4, T = 3 h after injection",0%
same,"Cycling Status of Progenitors, CFU-GM","P4, T = 3 h after injection",5%
same,"Cycling Status of Progenitors, CFU-GM, AGAR Culture","P4, T = 3 h after injection",0%
same,"Cycling Status of Progenitors, BFU-E","P4, T = 6 h after injection",0%
same,"Cycling Status of Progenitors, CFU-GEMM","P4, T = 6 h after injection",8%
same,"Cycling Status of Progenitors, CFU-GM","P4, T = 6 h after injection",0%
same,"Cycling Status of Progenitors, CFU-GM, AGAR Culture","P4, T = 6 h after injection",0%
same,"Cycling Status of Progenitors, BFU-E","P4, T = 9 h after injection",0%
same,"Cycling Status of Progenitors, CFU-GEMM","P4, T = 9 h after injection",0%
same,"Cycling Status of Progenitors, CFU-GM","P4, T = 9 h after injection",0%
same,"Cycling Status of Progenitors, CFU-GM, AGAR Culture","P4, T = 9 h after injection",0%
same,"Cycling Status of Progenitors, BFU-E","P4, T = 24 h after injection",3%
same,"Cycling Status of Progenitors, CFU-GEMM","P4, T = 24 h after injection",0%
same,"Cycling Status of Progenitors, CFU-GM","P4, T = 24 h after injection",5%
